Experiment [1] concerns the target SARS-CoV-2 main protease (M^Pro) (Severe acute respiratory syndrome coronavirus 2, UniProt P0DTD1). As to the kind of experiment: In vitro M^Pro enzymatic inhibition with fluorogenic substrate Sub3. The format is biochemical.
Experiment [2] has as its target M^Pro-eGFP fusion protein in 293T cells (Severe acute respiratory syndrome coronavirus 2, UniProt P0DTD1). Put plainly: cell-based. Details: species or system SARS-CoV-2. The note with it: read-out: Cellular EC50.
In experiment [3] the test system is SARS-CoV-2 (USA-WA1/2020). Put plainly: Plaque reduction neutralization test in Vero E6 cells. It is filed as cell-based. The note with it: SARS-CoV-2 USA-WA1/2020, Vero E6 cells, 3 days, read-out: Antiviral EC50.
Where [4] appears, read: 20 nM M^Pro, 10 μM Sub3, 30 min preincubation, read-out: Enzymatic IC50.
Setting [5] is: read-out: IC50 (M^Pro enzymatic inhibition).
Setting [6] is: Severe acute respiratory syndrome coronavirus 2, Vero C1008, 72 h.

SMILES strings stand for the structures. pEC50, pIC50: −log10 of the molar value. Where two headings read alike, the source gives them in different places. Where only a bound is given, the exact number is not on record here.

As to `CC1(C)[C@@H]2[C@@H](C(=O)N[C@H](C=O)C[C@@H]3CCNC3=O)N(C(=O)COc3ccc(Cl)cc3Cl)C[C@@H]21` [MI-14, (1R,2S,5S)-3-(2-(2,4-Dichlorophenoxy)acetyl)-6,6-dimethyl-N-((S)-1-oxo-3-((S)-2-oxopyrrolidin-3-yl)propan-2-yl)-3-azabicyclo[3.1.0]hexane-2-carboxamide, reference compound], the results for the pIC50 in experiment [1] (setting [4]) and in experiment [1] (setting [5]) were 7.55 and at least 7.30, respectively. The pEC50 in experiment [2] is 6.55.

Take `O=C[C@H](C[C@@H]1CCNC1=O)NC(=O)[C@@H]1[C@H]2CCC[C@H]2CN1C(=O)COc1ccc(Cl)c(Cl)c1` [MI-31, (1S,3aR,6aS)-2-(2-(3,4-Dichlorophenoxy)acetyl)-N-((S)-1-oxo-3-((S)-2-oxopyrrolidin-3-yl)propan-2-yl)octahydrocyclopenta[c]pyrrole-1-carboxamide, reference compound]: the values for the pIC50 in experiment [1] (setting [4]) and in experiment [1] (setting [5]) were 7.38 and at least 7.30, respectively. In addition, in experiment [2], the negative logarithm of the EC50 (pEC50) was 5.57.

In the case of `CC(C)(C)C[C@H](NC(=O)c1cc2ccccc2[nH]1)C(=O)N[C@H](C=O)C[C@@H]1CCNC1=O` [MPI48, N-((S)-4,4-Dimethyl-1-oxo-1-(((S)-1-oxo-3-((S)-2-oxopyrrolidin-3-yl)propan-2-yl)amino)pentan-2-yl)-1H-indole-2-carboxamide], in experiment [1] (setting [4]), the pIC50 was 7.54. The pEC50 in experiment [2] was 5.80.

For the compound `COc1cccc2[nH]c(C(=O)N[C@@H](CC(C)(C)C)C(=O)N[C@H](C=O)C[C@@H]3CCNC3=O)cc12` [MPI49, N-((S)-4,4-Dimethyl-1-oxo-1-(((S)-1-oxo-3-((S)-2-oxopyrrolidin-3-yl)propan-2-yl)amino)pentan-2-yl)-4-methoxy-1H-indole-2-carboxamide], the negative logarithm of the EC50 (pEC50) in experiment [3] (setting [6]) is 5.89; in experiment [2], 6.04. In addition, the pIC50 in experiment [1] (setting [4]) was 7.13.

With `CC(C)(C)C[C@H](NC(=O)OCc1ccccc1)C(=O)N[C@H](C=O)C[C@@H]1CCNC1=O` [MPI50, Benzyl ((S)-4,4-Dimethyl-1-oxo-1-(((S)-1-oxo-3-((S)-2-oxopyrrolidin-3-yl)propan-2-yl)amino)pentan-2-yl)carbamate], the pEC50 in experiment [3] is 6.12; in experiment [3] (setting [6]), over 6.00; in experiment [2], 6.14. Further, in experiment [1] (setting [4]), the pIC50 was 7.28.

Regarding `O=C[C@H](C[C@@H]1CCNC1=O)NC(=O)[C@H](CC1CCCCC1)NC(=O)OCc1ccccc1` [MPI51, Benzyl ((S)-3-Cyclohexyl-1-oxo-1-(((S)-1-oxo-3-((S)-2-oxopyrrolidin-3-yl)propan-2-yl)amino)propan-2-yl)carbamate], the pEC50 in experiment [3] (setting [6]) is 5.17; in experiment [2], 6.11. The pIC50 in experiment [1] (setting [4]) was 7.25.

As for `O=C[C@H](C[C@@H]1CCNC1=O)NC(=O)[C@H](CC1CCCCC1)NC(=O)OCc1cccc(Cl)c1` [MPI52, 3-Chlorobenzyl ((S)-3-Cyclohexyl-1-oxo-1-(((S)-1-oxo-3-((S)-2-oxopyrrolidin-3-yl)propan-2-yl)amino)propan-2-yl)carbamate], the negative logarithm of the EC50 (pEC50) is 5.59 in experiment [3] (setting [6]) and 6.23 in experiment [2]. In addition, the pIC50 in experiment [1] (setting [4]) was 6.96.

`CC(=O)Oc1cccc(COC(=O)N[C@@H](CC2CCCCC2)C(=O)N[C@H](C=O)C[C@@H]2CCNC2=O)c1` [MPI53, 3-(((((S)-3-Cyclohexyl-1-oxo-1-(((S)-1-oxo-3-((S)-2-oxopyrrolidin-3-yl)propan-2-yl)amino)propan-2-yl)carbamoyl)oxy)methyl)phenyl Acetate]: the pIC50 in experiment [1] (setting [4]) was 7.01. Moreover, in experiment [2], the pEC50 is 5.46.

Take `CC(C)(C)O[C@@H]1C[C@@H](C(=O)N[C@H](C=O)C[C@@H]2CCNC2=O)N(C(=O)OCc2ccccc2)C1` [MPI55]: the pIC50 in experiment [1] (setting [4]) was 6.25.

As for `O=C[C@H](C[C@@H]1CCNC1=O)NC(=O)[C@@H]1C[C@@H](C2CCCCC2)CN1C(=O)OCc1ccccc1` [MPI56, (2S,4S)-Benzyl 4-Cyclohexyl-2-(((S)-1-oxo-3-((S)-2-oxopyrrolidin-3-yl)propan-2-yl)carbamoyl)pyrrolidine-1-carboxylate], the pIC50 in experiment [1] (setting [4]) is 6.29.

Take `CC1(C)[C@@H]2[C@@H](C(=O)NC(C=O)CC3CCNC3=O)N(C(=O)OCc3ccccc3)C[C@@H]21` (stereo partly drawn) [MPI57, Benzyl (1R,2S,5S)-6,6-Dimethyl-2-((1-oxo-3-(2-oxopyrrolidin-3-yl)propan-2-yl)carbamoyl)-3-azabicyclo[3.1.0]hexane-3-carboxylate]: the negative-log EC50 (pEC50) in experiment [3] (setting [6]) is 5.82.

Regarding `O=C[C@H](C[C@@H]1CCNC1=O)NC(=O)[C@@H]1CC2(CC2)CN1C(=O)OCc1ccccc1` [MPI58, Benzyl (S)-6-(((S)-1-oxo-3-((S)-2-oxopyrrolidin-3-yl)propan-2yl)carbamoyl)-5-azaspiro[2,4]heptane-5-carboxylate], the negative-log EC50 (pEC50) in experiment [3] (setting [6]) was 5.44; in experiment [2] it was 6.18. In addition, the pIC50 in experiment [1] (setting [4]) is 7.60.

`O=C[C@H](C[C@@H]1CCNC1=O)NC(=O)[C@@H]1CC2(CCC2)CN1C(=O)OCc1ccccc1` [MPI59, Benzyl (S)-7-(((S)-1-Oxo-3-((S)-2-oxopyrrolidin-3-yl)propan-2-yl)carbamoyl)-6-azaspiro[3.4]octane-6-carboxylate]: the pEC50 in experiment [3] was 6.25; in experiment [3] (setting [6]), over 6.00; in experiment [2] it was 6.37. In experiment [1] (setting [4]), the pIC50 is 7.52.

Take `CC1(C)[C@@H]2[C@@H](C(=O)N[C@H](C=O)C[C@@H]3CCNC3=O)N(C(=O)CNc3ccc(Cl)cc3)C[C@@H]21` [MPI62, (1R,2S,5S)-3-((4-Chlorophenyl)glycyl)-6,6-dimethyl-N-((S)-1-oxo-3-((S)-2-oxopyrrolidin-3-yl)propan-2-yl)-3-azabicyclo[3.1.0]hexane-2-carboxamide]: the pIC50 in experiment [1] (setting [4]) was 6.00.

Consider `O=C[C@H](C[C@@H]1CCNC1=O)NC(=O)[C@@H]1CC2(CC2)CN1C(=O)COc1ccc(Cl)cc1Cl` [MPI63, (S)-5-(2-(2,4-Dichlorophenoxy)acetyl)-N-((S)-1-oxo-3-((S)-2-oxopyrrolidin-3-yl)propan-2-yl)-5-azaspiro[2.4]heptane-6-carboxamide], for which the pIC50 in experiment [1] (setting [4]) was 7.41. The pEC50 in experiment [2] is 5.54.

With `CC1(C)[C@@H]2[C@@H](C(=O)N[C@H](C=O)C[C@@H]3CCNC3=O)N(C(=O)COC3CCCCC3)C[C@@H]21` [MPI64, (1R,2S,5S)-3-(2-(Cyclohexyloxy)acetyl)-6,6-dimethyl-N-((S)-1-oxo-3-((S)-2-oxopyrrolidin-3-yl)propan-2-yl)-3-azabicyclo[3.1.0]hexane-2-carboxamide], the pIC50 in experiment [1] (setting [4]) is 7.60. Also, in experiment [2], the negative-log EC50 (pEC50) is 5.44.

Consider `CC1(C)[C@@H]2[C@@H](C(=O)N[C@H](C=O)C[C@@H]3CCNC3=O)N(C(=O)CCC3CCCCC3)C[C@@H]21` [MPI65, (1R,2S,5S)-3-(3-Cyclohexylpropanoyl)-6,6-dimethyl-N-((S)-1-oxo-3-((S)-2-oxopyrrolidin-3-yl)propan-2-yl)-3-azabicyclo[3.1.0]hexane-2-carboxamide], for which the figures for the pEC50 in experiment [3], in experiment [3] (setting [6]) and in experiment [2] were 6.02, over 6.00 and 6.25, respectively. Also, the pIC50 in experiment [1] (setting [4]) is 7.39.

Take `N#C[C@H](C[C@@H]1CCNC1=O)NC(=O)C1CC2(CCCC2)CN1C(=O)OCc1ccccc1` (stereo partly drawn) [MPI66-1, Benzyl 3-(((S)-1-Cyano-2-((S)-2-oxopyrrolidin-3-yl)ethyl)carbamoyl)-2-azaspiro[4.4]nonane-2-carboxylate]: the pIC50 in experiment [1] (setting [4]) is 5.66.

Regarding `N#C[C@H](C[C@@H]1CCNC1=O)NC(=O)C1CC2(CCCC2)CN1C(=O)OCc1cccc(Cl)c1` (stereo partly drawn) [MPI66-2, 3-Chlorobenzyl 3-(((S)-1-Cyano-2-((S)-2-oxopyrrolidin-3-yl)ethyl)carbamoyl)-2-azaspiro[4.4]nonane-2-carboxylate], the pIC50 in experiment [1] (setting [4]) was 5.44.

Take `COc1cccc2[nH]c(C(=O)N3CC4(CCCC4)CC3C(=O)N[C@H](C=O)C[C@@H]3CCNC3=O)cc12` (stereo partly drawn) [MPI66-3, 2-(4-Methoxy-1H-indole-2-carbonyl)-N-((S)-1-oxo-3-((S)-2-oxopyrrolidin-3-yl)propan-2-yl)-2-azaspiro[4.4]nonane-3-carboxamide]: the pIC50 in experiment [1] (setting [4]) was 5.82.

Consider `COc1cccc2[nH]c(C(=O)N3CC4(CCCC4)CC3C(=O)N[C@H](C#N)C[C@@H]3CCCNC3=O)cc12` (stereo partly drawn) [MPI66-4, N-((S)-1-Cyano-2-((S)-2-oxopiperidin-3-yl)ethyl)-2-(4-methoxy-1H-indole-2-carbonyl)-2-azaspiro[4.4]nonane-3-carboxamide], for which the pIC50 in experiment [1] (setting [4]) was 5.22.

In the case of `N#C[C@H](C[C@@H]1CCNC1=O)NC(=O)C1CC2(CCCCC2)CN1C(=O)OCc1ccccc1` (stereo partly drawn) [MPI67, Benzyl 3-(((S)-1-Cyano-2-((S)-2-oxopyrrolidin-3-yl)ethyl)carbamoyl)-2-azaspiro[4.5]decane-2-carboxylate], the pIC50 in experiment [1] (setting [4]) is 5.85.

Take `CC(C)(C)OC(=O)N1CC2(CCC2)C[C@H]1C(=O)N[C@H](C=O)C[C@@H]1CCNC1=O` [YR-B-101, tert-Butyl-(S)-7-(((S)-1-oxo-3-((S)-2-oxopyrrolidin-3-yl)propan-2-yl)carbamoyl)-6-azaspiro[3.4]octane-6-carboxylate]: the pIC50 in experiment [1] (setting [4]) was under 5.30.
